Experimental data reported in patent publication US20230263822A1, “MODULATION OF FACTOR 11 EXPRESSION” (Ionis Pharmaceuticals, Inc., priority 2008, published 2023).
Read-outs that look alike come from different tables or passages of the source. e = 2'-O-(2-methoxyethyl) (MOE); d = 2'-deoxy (DNA)

What was measured:
[1] = mouse, in vivo, sc, 50 mg/kg
[2] = mouse, in vivo, sc, 50 mg/kg; remark: listed apart in the source
[3] = mouse, in vivo, sc, 50 mg/kg; remark: listed apart in the source
[4] = rat, in vivo, sc, 50 mg/kg
[5] = rat, in vivo, sc, 50 mg/kg; remark: listed apart in the source
[6] = rat, in vivo, sc, 50 mg/kg; remark: listed apart in the source

Substance: ISIS 413482: 5-10-5 MOE gapmer GGACGGCATTGGTGCACAGT (sugars from the 5' end e5 d10 e5, backbone and methylation of C not given here)
- ALT [1]: 54 IU/L
- AST [1]: 77 IU/L
- Bilirubin [1]: 0.24 mg/dL
- Cholesterol [1]: 138 mg/dL
- BUN [2]: 27 mg/dL
- HCT [3]: 50%
- Lymphocyte [3]: 5584 cells/μL
- Neutrophil [3]: 1958 cells/μL
- Platelets [3]: 818 10^3/μL
- RBC [3]: 10 10^6/μL
- WBC [3]: 8 10^3/μL
- hemoglobin [3]: 15 g/dL
- monocytes [3]: 275 cells/μL
- ALT [4]: 59 IU/L
- AST [4]: 157 IU/L
- Albumin [4]: 4
- Bilirubin [4]: 0.14 mg/dL
- BUN [5]: 23 mg/dL
- Creatinine [5]: 34 mg/dL
- Total urine protein [5]: 157 mg/dL
- Urine protein/creatinine ratio [5]: 4.8
- HCT [6]: 40%
- Lymphocyte [6]: 11430
- Neutrophil [6]: 1125
- Platelets [6]: 641
- RBC [6]: 7.1 10^6/μL
- WBC [6]: 13 10^3/μL
- hemoglobin [6]: 13.2 g/dL

Substance: ISIS 416860: MOE gapmer, nucleobases 1275 to 1318 of SEQ ID NO: 1 (Table 8) (antisense CGGACGGCATTGGTGCACAG; MOE gapmer, wing and gap sizes not given here)
- ALT [1]: 189 IU/L
- AST [1]: 160 IU/L
- Bilirubin [1]: 0.23 mg/dL
- Cholesterol [1]: 152 mg/dL
- BUN [2]: 25 mg/dL
- HCT [3]: 51%
- Lymphocyte [3]: 4889 cells/μL
- Neutrophil [3]: 1291 cells/μL
- Platelets [3]: 937 10^3/μL
- RBC [3]: 10 10^6/μL
- WBC [3]: 7 10^3/μL
- hemoglobin [3]: 15 g/dL
- monocytes [3]: 161 cells/μL
- ALT [4]: 70 IU/L
- AST [4]: 157 IU/L
- Albumin [4]: 4
- Bilirubin [4]: 0.15 mg/dL
- BUN [5]: 23 mg/dL
- Creatinine [5]: 58 mg/dL
- Total urine protein [5]: 242 mg/dL
- Urine protein/creatinine ratio [5]: 4.6
- HCT [6]: 45%
- Lymphocyte [6]: 13986
- Neutrophil [6]: 1841
- Platelets [6]: 669
- RBC [6]: 7.8 10^6/μL
- WBC [6]: 17 10^3/μL
- hemoglobin [6]: 14.1 g/dL

Substance: ISIS 416863: MOE gapmer, nucleobases 1275 to 1318 of SEQ ID NO: 1 (Table 8) (antisense CAGCGGACGGCATTGGTGCA; MOE gapmer, wing and gap sizes not given here)
- ALT [1]: 41 IU/L
- AST [1]: 101 IU/L
- Bilirubin [1]: 0.24 mg/dL
- Cholesterol [1]: 118 mg/dL
- BUN [2]: 22 mg/dL
- HCT [3]: 48%
- Lymphocyte [3]: 5617 cells/μL
- Neutrophil [3]: 1330 cells/μL
- Platelets [3]: 1131 10^3/μL
- RBC [3]: 9 10^6/μL
- WBC [3]: 7 10^3/μL
- hemoglobin [3]: 14 g/dL
- monocytes [3]: 226 cells/μL
- ALT [4]: 47 IU/L
- AST [4]: 78 IU/L
- Albumin [4]: 4
- Bilirubin [4]: 0.13 mg/dL
- BUN [5]: 29 mg/dL
- Creatinine [5]: 73 mg/dL
- Total urine protein [5]: 269 mg/dL
- Urine protein/creatinine ratio [5]: 3.8
- HCT [6]: 45%
- Lymphocyte [6]: 14669
- Neutrophil [6]: 1720
- Platelets [6]: 674
- RBC [6]: 7.6 10^6/μL
- WBC [6]: 17 10^3/μL
- hemoglobin [6]: 14.1 g/dL

Substance: ISIS 416859: MOE gapmer, nucleobases 1275 to 1318 of SEQ ID NO: 1 (Table 8) (antisense GACGGCATTGGTGCACAGTT; MOE gapmer, wing and gap sizes not given here)
- ALT [1]: 214 IU/L
- AST [1]: 293 IU/L
- Bilirubin [1]: 0.20 mg/dL
- Cholesterol [1]: 160 mg/dL
- BUN [2]: 18 mg/dL
- HCT [3]: 49%
- Lymphocyte [3]: 4363 cells/μL
- Neutrophil [3]: 1561 cells/μL
- Platelets [3]: 826 10^3/μL
- RBC [3]: 10 10^6/μL
- WBC [3]: 6 10^3/μL
- hemoglobin [3]: 15 g/dL
- monocytes [3]: 229 cells/μL
- ALT [4]: 114 IU/L
- AST [4]: 206 IU/L
- Albumin [4]: 5
- Bilirubin [4]: 0.21 mg/dL
- BUN [5]: 24 mg/dL
- Creatinine [5]: 44 mg/dL
- Total urine protein [5]: 144 mg/dL
- Urine protein/creatinine ratio [5]: 3.3
- HCT [6]: 45%
- Lymphocyte [6]: 14323
- Neutrophil [6]: 1414
- Platelets [6]: 853
- RBC [6]: 7.8 10^6/μL
- WBC [6]: 16 10^3/μL
- hemoglobin [6]: 14.0 g/dL

Substance: ISIS 416851: MOE gapmer, nucleobases 1275 to 1318 of SEQ ID NO: 1 (Table 8) (antisense GTGCACAGTTTCTGGCAGGC; MOE gapmer, wing and gap sizes not given here)
- ALT [1]: 47 IU/L
- AST [1]: 76 IU/L
- Bilirubin [1]: 0.19 mg/dL
- Cholesterol [1]: 106 mg/dL
- BUN [2]: 21 mg/dL
- HCT [3]: 47%
- Lymphocyte [3]: 4162 cells/μL
- Neutrophil [3]: 1619 cells/μL
- Platelets [3]: 984 10^3/μL
- RBC [3]: 9 10^6/μL
- WBC [3]: 6 10^3/μL
- hemoglobin [3]: 14 g/dL
- monocytes [3]: 194 cells/μL
- ALT [4]: 64 IU/L
- AST [4]: 91 IU/L
- Albumin [4]: 4
- Bilirubin [4]: 0.14 mg/dL
- BUN [5]: 24 mg/dL
- Creatinine [5]: 70 mg/dL
- Total urine protein [5]: 286 mg/dL
- Urine protein/creatinine ratio [5]: 4.0
- HCT [6]: 42%
- Lymphocyte [6]: 9911
- Neutrophil [6]: 1001
- Platelets [6]: 734
- RBC [6]: 7.4 10^6/μL
- WBC [6]: 11 10^3/μL
- hemoglobin [6]: 13.7 g/dL

Substance: ISIS 412224: 5-10-5 MOE gapmer GCATTGGTGCACAGTTTCTG (sugars from the 5' end e5 d10 e5, backbone and methylation of C not given here)
- ALT [1]: 214 IU/L
- AST [1]: 183 IU/L
- Bilirubin [1]: 0.19 mg/dL
- Cholesterol [1]: 114 mg/dL
- BUN [2]: 29 mg/dL
- HCT [3]: 50%
- Lymphocyte [3]: 6284 cells/μL
- Neutrophil [3]: 2107 cells/μL
- Platelets [3]: 647 10^3/μL
- RBC [3]: 10 10^6/μL
- WBC [3]: 9 10^3/μL
- hemoglobin [3]: 15 g/dL
- monocytes [3]: 195 cells/μL
- ALT [4]: 84 IU/L
- AST [4]: 132 IU/L
- Albumin [4]: 4
- Bilirubin [4]: 0.12 mg/dL
- BUN [5]: 24 mg/dL
- Creatinine [5]: 44 mg/dL
- Total urine protein [5]: 171 mg/dL
- Urine protein/creatinine ratio [5]: 3.8
- HCT [6]: 42%
- Lymphocyte [6]: 16807
- Neutrophil [6]: 1865
- Platelets [6]: 685
- RBC [6]: 7.4 10^6/μL
- WBC [6]: 20 10^3/μL
- hemoglobin [6]: 13.4 g/dL

Substance: ISIS 412223: 5-10-5 MOE gapmer ACAGTTTCTGGCAGGCCTCG (sugars from the 5' end e5 d10 e5, backbone and methylation of C not given here)
- ALT [1]: 60 IU/L
- AST [1]: 125 IU/L
- Bilirubin [1]: 0.20 mg/dL
- Cholesterol [1]: 117 mg/dL
- BUN [2]: 28 mg/dL
- HCT [3]: 48%
- Lymphocyte [3]: 4599 cells/μL
- Neutrophil [3]: 1756 cells/μL
- Platelets [3]: 862 10^3/μL
- RBC [3]: 9 10^6/μL
- WBC [3]: 7 10^3/μL
- hemoglobin [3]: 15 g/dL
- monocytes [3]: 200 cells/μL
- ALT [4]: 85 IU/L
- AST [4]: 180 IU/L
- Albumin [4]: 5
- Bilirubin [4]: 0.14 mg/dL
- BUN [5]: 24 mg/dL
- Creatinine [5]: 46 mg/dL
- Total urine protein [5]: 224 mg/dL
- Urine protein/creatinine ratio [5]: 4.6
- HCT [6]: 41%
- Lymphocyte [6]: 16990
- Neutrophil [6]: 1826
- Platelets [6]: 567
- RBC [6]: 7.2 10^6/μL
- WBC [6]: 20 10^3/μL
- hemoglobin [6]: 13.1 g/dL

Substance: ISIS 412225: 5-10-5 MOE gapmer GCAGCGGACGGCATTGGTGC (sugars from the 5' end e5 d10 e5, backbone and methylation of C not given here)
- ALT [1]: 40 IU/L
- AST [1]: 69 IU/L
- Bilirubin [1]: 0.23 mg/dL
- Cholesterol [1]: 128 mg/dL
- BUN [2]: 23 mg/dL
- HCT [3]: 50%
- Lymphocyte [3]: 4969 cells/μL
- Neutrophil [3]: 1547 cells/μL
- Platelets [3]: 574 10^3/μL
- RBC [3]: 9 10^6/μL
- WBC [3]: 7 10^3/μL
- hemoglobin [3]: 15 g/dL
- monocytes [3]: 293 cells/μL
- ALT [4]: 48 IU/L
- AST [4]: 108 IU/L
- Albumin [4]: 5
- Bilirubin [4]: 0.15 mg/dL
- BUN [5]: 23 mg/dL
- Creatinine [5]: 58 mg/dL
- Total urine protein [5]: 209 mg/dL
- Urine protein/creatinine ratio [5]: 4.0
- HCT [6]: 42%
- Lymphocyte [6]: 13204
- Neutrophil [6]: 1499
- Platelets [6]: 673
- RBC [6]: 7.4 10^6/μL
- WBC [6]: 15 10^3/μL
- hemoglobin [6]: 13.4 g/dL
